From patent publication US6506766B1 (Abbott Laboratories, priority 1998, dated 2003)
Read-outs that look alike come from different tables or passages of the source.

Legend:
[1] = biological target: T1, human glucocorticoid receptor-α [GRX] isoform (Homo sapiens, UniProt P04150); assay: Radioligand binding with human glucocorticoid receptor cytosol ([3H]-dexamethasone competition)
T1 construct: host or cells: insect SF21 cells (baculovirus)
T1 sequence (P04150 1-777): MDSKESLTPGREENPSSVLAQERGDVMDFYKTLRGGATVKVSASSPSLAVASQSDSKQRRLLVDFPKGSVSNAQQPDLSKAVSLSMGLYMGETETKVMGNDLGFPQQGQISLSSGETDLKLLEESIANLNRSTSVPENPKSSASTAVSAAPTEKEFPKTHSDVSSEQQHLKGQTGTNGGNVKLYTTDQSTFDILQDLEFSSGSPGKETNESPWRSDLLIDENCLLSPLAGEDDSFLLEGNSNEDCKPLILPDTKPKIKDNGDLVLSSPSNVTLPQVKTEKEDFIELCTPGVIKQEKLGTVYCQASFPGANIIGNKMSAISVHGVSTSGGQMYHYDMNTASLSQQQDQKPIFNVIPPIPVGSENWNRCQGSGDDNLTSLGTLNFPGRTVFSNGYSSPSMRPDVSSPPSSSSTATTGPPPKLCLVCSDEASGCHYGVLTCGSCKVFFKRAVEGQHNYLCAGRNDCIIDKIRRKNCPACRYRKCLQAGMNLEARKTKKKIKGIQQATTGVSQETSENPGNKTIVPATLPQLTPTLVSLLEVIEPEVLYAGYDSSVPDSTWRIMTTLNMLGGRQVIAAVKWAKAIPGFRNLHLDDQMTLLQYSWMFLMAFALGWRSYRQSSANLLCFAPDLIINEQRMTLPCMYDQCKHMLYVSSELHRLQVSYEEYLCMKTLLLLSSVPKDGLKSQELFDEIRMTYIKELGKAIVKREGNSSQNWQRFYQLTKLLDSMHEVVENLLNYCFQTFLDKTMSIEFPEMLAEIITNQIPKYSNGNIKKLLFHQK

[2] = biological target: T2, human progesterone receptor-A [PRA] isoform (Homo sapiens, UniProt P06401); assay: Radioligand binding with human progesterone receptor cytosol ([3H]-progesterone competition)
T2 construct: host or cells: insect SF21 cells (baculovirus)
T2 sequence (P06401 1-769 isoform P06401-2): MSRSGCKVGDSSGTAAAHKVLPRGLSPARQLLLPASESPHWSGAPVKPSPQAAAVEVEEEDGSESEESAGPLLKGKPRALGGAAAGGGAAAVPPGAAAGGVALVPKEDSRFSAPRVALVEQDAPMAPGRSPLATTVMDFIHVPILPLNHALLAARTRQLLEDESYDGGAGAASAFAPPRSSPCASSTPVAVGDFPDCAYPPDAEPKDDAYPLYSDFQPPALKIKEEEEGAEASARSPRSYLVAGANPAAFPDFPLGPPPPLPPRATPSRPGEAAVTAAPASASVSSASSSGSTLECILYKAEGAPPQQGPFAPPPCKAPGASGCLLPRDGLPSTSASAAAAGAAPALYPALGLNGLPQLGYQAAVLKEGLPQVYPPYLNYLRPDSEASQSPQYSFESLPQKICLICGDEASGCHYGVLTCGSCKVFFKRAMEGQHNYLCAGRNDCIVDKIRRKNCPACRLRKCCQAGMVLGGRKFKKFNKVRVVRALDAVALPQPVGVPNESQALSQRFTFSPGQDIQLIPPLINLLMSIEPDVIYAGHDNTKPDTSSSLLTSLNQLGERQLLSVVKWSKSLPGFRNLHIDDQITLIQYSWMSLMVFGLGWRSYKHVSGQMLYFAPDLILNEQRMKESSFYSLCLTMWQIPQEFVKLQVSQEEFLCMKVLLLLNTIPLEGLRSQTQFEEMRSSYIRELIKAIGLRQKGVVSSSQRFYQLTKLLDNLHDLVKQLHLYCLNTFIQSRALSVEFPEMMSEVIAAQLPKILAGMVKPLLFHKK
Protocol: Both receptor cDNAs were cloned into baculovirus expression vectors and expressed in insect SF21 cells.
Stock solutions (32 mM) of compounds were prepared in dimethylsulfoxide (DMSO), and 50× solutions of test compounds were prepared from the 32 mM solution with a 50:50 mixture of DMSO/ethanol. The 50× solution was then diluted with binding buffer that contained 10 mM Tri-HCl, 1.5 mM EDTA, 10% glycerol, 1 mM DTT, 20 mM sodium molybdate, pH 7.5 @4° C. 1% DMSO/ethanol was present in the binding assay.
For PR binding assays, [^3H]Prog (˜36,000 dpm (˜0.8 nM)), PRA cytosol (˜40 μg protein), test compounds and binding buffer were mixed in a total volume of 200 μL and incubated at 4° C at overnight in a plate shaker. Specific binding was defined as the difference between binding of [^3H]Prog in the absence and in the presence of 3 μM unlabelled Prog.
After an overnight incubation, 50 μL of hydroxyapatite (25% weight/volume) slurry were added to each well and plates were incubated for 10 min at 0° C. in a plate shaker. Plates were suctioned with a Millipore vacuum manifold and each well was rinsed with 300 μL of ice-cold binding buffer. A 250 μL aliquot of Packard Microscint-20 was added to each well and the wells were shaken at room temperature for 20 minutes. The amount of radioactivity was determined with a Packard TopCount plate reader.
The Ki of test compounds was determined using the Cheng-Prusoff equation Ki=IC50/(1+[L*]/[KL]) where L* is the concentration of radioligand and KL is the dissociation constant of the radioligand determined from saturation analysis.

[3] = GRX cytosol expressed in insect SF21 cells, [3H]-Dex ~0.9 nM, 4° C. overnight, Ki by Cheng-Prusoff, KL ~[…], read-out: Ki (nM) GR
[4] = PRA cytosol expressed in insect SF21 cells, [3H]Prog ~0.8 nM, 4° C. overnight, Ki by Cheng-Prusoff, KL ~4.5 nM, read-out: Ki (nM) PR

Compound	Ki [1, 3]	Ki [2, 4]	further results
COc1cccc2c1-c1ccc3c(c1C(c1ccc(OC(=O)N(C)C)cc1)O2)C(C)=CC(C)(C)N3 (stereo not drawn) [Example 97, [4-(2,5-Dihydro-10-methoxy-2,2,4-trimethyl-1H-1benzopyrano[3,4-f]quinolin-5-yl)phenyl]dimethylcarbamate]			Ki ([1]; Ki (nM) GR): 320 nM; Ki ([2]; Ki (nM) PR): ≥ 10000 nM
COc1cccc2c1-c1ccc3c(c1C(c1cccc(CCOS(C)(=O)=O)c1)O2)C(C)=CC(C)(C)N3 (stereo not drawn) [Example 315, 2,5-Dihydro-10-methoxy-5-(3-(2-methanesulfonyloxyethyl)phenyl)-2,2,4-trimethyl-1H-[1]benzopyrano[3,4-f]quinoline]	13 nM	≥ 10000 nM	
COc1cccc2c1-c1ccc3c(c1C(C1=CCCCC1)O2)C(C)=CC(C)(C)N3 (stereo not drawn) [Example 325, trans 2,5-Dihydro-10-methoxy-5-(1-cyclohexenyl)-2,2,4-trimethyl-1H-[1]benzopyrano[3,4-f]quinoline]		≥ 10000 nM	Ki ([1]; Ki (nM) GR): 24 nM
COc1cccc2c1-c1ccc3c(c1[C@H]([C@H]1C=C(CO)CCC1)O2)C(C)=CC(C)(C)N3 [Example 155]	0.86 nM	≥ 10000 nM	
CC1=CC(C)(C)Nc2ccc3c(c21)C(c1ccccc1)Oc1cccc(C=O)c1-3 (stereo not drawn) [Example 337, 2,5-Dihydro-10-formyl-5-phenyl-2,2,4-trimethyl-1H-[1]benzopyrano[3,4-f]quinoline]	3.3 nM	702 nM	
COc1ccc(C2Oc3cccc(OC)c3-c3ccc4c(c32)C(C)=CC(C)(C)N4)cc1 (stereo not drawn) [Example 22, 2,5-Dihydro-10-methoxy-5-(4-methoxyphenyl)-2,2,4-trimethyl-1H-[1]benzopyrano[3,4-f]quinoline]	6.5 nM	≥ 10000 nM	
COc1cccc2c1-c1ccc3c(c1C(c1cccc(Br)c1)O2)C(C)=CC(C)(C)N3 (stereo not drawn) [Example 52, 5-(3-Bromophenyl)-2,5-dihydro-10-methoxy-2,2,4-trimethyl-1H-[1]benzopyrano[3,4-f]quinoline]	3 nM	2270 nM	
C=CCC1Oc2cccc(OC)c2-c2ccc3c(c21)C(CC)=CC(C)(C)N3 (stereo not drawn) [Example 363, 2,5-Dihydro-10-methoxy-2,2-dimethyl-4-ethyl-5-allyl-1H-[1]benzopyrano[3,4-f]quinoline]	5 nM	3940 nM	
COc1ccc2c(c1OC)-c1ccc3c(c1C(C1C=CCCC1)O2)C(C)=CC(C)(C)N3 (stereo not drawn) [Example 131, 5-(2-Cyclohexen-1-yl)-2,5-dihydro-9,10-dimethoxy-2,2,4-trimethyl-1H-[1]benzopyrano[3,4-f]quinoline]	7.71 nM	996 nM	
COc1cccc2c1-c1ccc3c(c1C(=Cc1cccc(C(F)(F)F)c1)O2)C(C)=CC(C)(C)N3 [Example 122, 2,5-Dihydro-10-methoxy-2,2,4-trimethyl-5-[[3-(trifluoromethyl)phenyl]methylene-]1H-[1]-benzopyrano[3,4-f]quinoline]	11.8 nM	1410 nM	
COc1ccc(Br)c2c1-c1ccc3c(c1C(C1C=CCCC1)O2)C(C)=CC(C)(C)N3 (stereo not drawn) [Example 297]	4.7 nM	4840 nM	
COc1cccc2c1-c1ccc3c(c1C(c1ccc(C)c(C)c1)O2)C(C)=CC(C)(C)N3 (stereo not drawn) [Example 29, 5-(3,4-Dimethylphenyl)-2,5-dihydro-10-methoxy-2,2,4-trimethy-1H-[1]benzopyrano[3,4-f]quinoline]	7.7 nM	7760 nM	
(+/−)2,5-Dihydro-9-hydroxy-10-methoxy-2,2,4-trimethyl-5(S)-(3(S)-1-hydroxymethylcyclopenten-3-yl)-1H-[1]benzopyrano[3,4-f]quinoline [Example 270]			Ki ([1]; read-out: Ki (nM) GR): 0.66 nM; Ki ([2]; read-out: Ki (nM) PR): 4760 nM
C/C=C\C1Oc2cccc(OC)c2-c2ccc3c(c21)C(C)=CC(C)(C)N3 (stereo not drawn) [Example 180, (Z)-2,5-Dihydro-10-methoxy-5-(1-propenyl)-2,2,4-trimethyl-1H-[1]benzopyrano[3,4-f]quinoline]	18 nM	733 nM	
C=CCC1Oc2cccc(C(=O)OC)c2-c2ccc3c(c21)C(C)=CC(C)(C)N3 (stereo not drawn) [Example 4, Methyl 2,5-Dihydro-2,2,4-trimethyl-5-(2-propenyl)-1H-[1]benzopyrano[3,4-f]quinoline-10-carboxylate]	7 nM	2960 nM	
COc1cccc2c1-c1ccc3c(c1[C@H]([C@H]1C=CCCC1)O2)C(C)=CC(C)(C)N3 [Example 392, (−)(5S,3′R)2,5-Dihydro-10-methoxy-2,2,4-trimethyl-5-(cyclohexen-3-yl)-1H-[1]benzopyrano[3,4-f]quinoline]		487 nM	Ki ([1]; Ki (nM) GR, GRX cytosol expressed in insect SF21 cells, [3H]-Dex ~0.9 nM, 4° C. overnight, Ki by Cheng-Prusoff, KL ~[…]): 1.2 nM
COc1cccc2c1-c1ccc3c(c1C(c1c[nH]c4ccccc14)O2)C(C)=CC(C)(C)N3 (stereo not drawn) [Example 151, 2,5-Dihydro-10-methoxy-5-(3-indolyl)-2,2,4-trimethyl-1H-[1]benzopyrano[3,4-f]quinoline]	298 nM	≥ 10000 nM	
C=C(C)CCC1Oc2cccc(OC)c2-c2ccc3c(c21)C(C)=CC(C)(C)N3 (stereo not drawn) [Example 132, 2,5-Dihydro-10-methoxy-5-(3-methyl-3-butenyl)-2,2,4-trimethyl-1H-[1]benzopyrano[3,4-f]quinoline]	230 nM	9890 nM	
COc1cccc2c1-c1ccc3c(c1C(C1CC1)O2)C(C)=CC(C)(C)N3 (stereo not drawn) [Example 319, 2,5-Dihydro-10-methoxy-5-cyclopropyl-2,2,4-trimethyl-1H-[1]benzopyrano[3,4-f]quinoline]	16 nM	492 nM	
COc1cccc2c1-c1ccc3c(c1C(c1cccc(OS(=O)(=O)C(F)(F)F)c1)O2)C(C)=CC(C)(C)N3 (stereo not drawn) [Example 105]	9 nM	> 10000 nM	
CC1=CC(C)(C)Nc2ccc3c(c21)C(c1ccccc1)Oc1cccc(C)c1-3 (stereo not drawn) [Example 71, 2,5-Dihydro-2,2,4,10-tetrametnyl-5-phenyl-1H-[1]benzopyrano[3,4-f]quinoline]	7.7 nM	484 nM	
COc1c(O)ccc2c1-c1ccc3c(c1C(c1cccc(O)c1)O2)C(C)=CC(C)(C)N3 (stereo not drawn) [Example 398, 2,5-Dihydro-9-hydroxy-10-methoxy-2,2,4-trimethyl-5-(3-hydroxyphenyl)-1H-[1]benzopyrano[3,4-f]quinoline]	6.7 nM	1080 nM	
COc1cccc2c1-c1ccc3c(c1C(C(C)C)O2)C(C)=CC(C)(C)N3 (stereo not drawn) [Example 58, 2,5-Dihydro-10-methoxy-2,2,4-trimethyl-5-(1-methylethyl)-1H-[1]benzopyrano[3,4-f]quinoline]	9 nM	8570 nM	
CCC1Oc2ccc(O)c(OC)c2-c2ccc3c(c21)C(C)=CC(C)(C)N3 (stereo not drawn) [Example 376, 9-Hydroxy-10-methoxy-5-ethyl-2,2,4-trimethyl-2,5-dihydro-1H-[1]benzopyrano[3,4-f]quinoline]	0.78 nM	156 nM	
COc1cccc2c1-c1ccc3c(c1C(/C=C/c1ccccc1)O2)C(C)=CC(C)(C)N3 (stereo not drawn) [Example 321, trans 2,5-Dihydro-10-methoxy-5-(2-phenylethenyl)-2,2,4-trimethyl-1H-[1]benzopyrano[3,4-f]quinoline]	44 nM	2880 nM	
COc1c(O)ccc2c1-c1ccc3c(c1[C@@H]([C@H]1C=CCC1)O2)C(C)=CC(C)(C)N3 [Example 287]	346 nM	3500 nM	
CCOc1cccc2c1-c1ccc3c(c1C(c1ccccc1)O2)C(C)=CC(C)(C)N3 (stereo not drawn) [Example 9, 10-Ethoxy-2,5-dihydro-2,2,4-trimethyl-5-phenyl-1H-[1]benzopyrano[3,4-f]quinoline]	60.5 nM	≥ 10000 nM	
